Measurements: patent publication US20250270216A1, “ANTI-INFECTIVE AGENTS” (UNIVERSITY OF DUNDEE, priority 2022, published 2025)

How the values were obtained:
PfLysRS = PfLysRS (Plasmodium falciparum, UniProt Q8IDJ8); details: Hoepfner et al, Cell Host Microbe, 2012; cited from earlier work
[1] = molecular target: T1, Human lysyl tRNA Synthetase (KRS) (Homo sapiens, UniProt Q15046); test: In vitro inhibition of human lysyl tRNA synthetase (KRS), Biomol green phosphate detection; format: biochemical; details: 3.5 μM ATP, 6 μM L-Lysine, 5 h room temperature; read-out: Hs KRS pIC50 (converted)
T1 construct: His tag with PreScission site (His PP pET15b); made in house; host or cells: E. coli BL21 (DE3)
Method: The gene coding for Human KRS, codon optimized for expression in E. coli, was obtained from Genscript and cloned into a His PP pET15b vector using Nde1 and Xho1 restriction sites. The resulting vector was used to transform BL21 (DE3) competent cells for protein expression. A 120 ml overnight culture was set up and grown at 37° C. 200 rpm for 16 h and used the next day to inoculate 6 litres of Autoinduction+AMP medium. This culture was grown at 37° C. for 4 h then 20° C. for 20 h. The cells were harvested by centrifugation at 3,500 g for 30 min then stored at −20° C. The resulting cell pellet was 50 g. Lysis buffer (150 ml, 25 mM HEPES/500 mM NaCl/20 mM imidazole/2 mM DTT/10% glycerol pH 7.5/protease inhibitor tablets/DNAase) was added and the pellets for defrosted at room temperature for approximately 10 min. The slurry was then passed through a Cell Disrupter (Constant Systems) set at […] to lyse the cells. The sample was then centrifuged at 40,000 g for 20 min. The supernatant was then filtered using syringe filters to 0.45 μm. The supernatant was loaded onto a 5 ml HiTrap Ni HP column that had been equilibrated with BufferA (25 mM HEPES/500 mM NaCl/20 mM Imidazole/2 mM DTT/10% Glycerol pH 7.5) at 5 ml/min using an AKTA Pure system. Once loaded the column was washed with 10 column volumes buffer A. A 5% step of Buffer B (25 mM HEPES/500 mM NaCl/500 mM Imidazole/2 mM DTT/10% Glycerol pH 7.5) was then used to wash off His rich contaminating proteins. A gradient of 5-50% B was used to elute the protein. Approximately 55 mg of protein was present in the fractions containing the HsKRS protein. The sample was then passed through a 0.2 μm filter, before loading onto a XK26/60 Superdex 200 column equilibrated with Buffer C (25 mM HEPES/150 mM NaCl/2 mM DTT/10% glycerol pH 7.0) using an AKTA Pure system at 4° C. at 2 ml/min. The sample was then dialyzed into 25 mM HEPES/500 mM NaCl//2 mM DTT/10% glycerol/0.25% azide pH 7.0. The protein was concentrated to 1 mg/ml and frozen at −80° C. Approximately 23 mg of protein was produced.
Assay Method for Measurement of In Vitro Inhibition of Human lysyl tRNA Synthetase (KRS)
Potency of compounds was determined in 10 points dose-response inhibition curves. Compounds were transferred into 384-well clear bottom plates (Greiner Bio-One, 781101) using an Echo 550 acoustic dispenser (Labcyte). Using an automatic liquid dispenser, 50 μL reaction mixes were prepared by adding 25 μL of substrate mix into all wells followed by the addition of 25 μL enzyme mix into all wells (final reaction: 30 mM Tris-HCl, pH 8.0, 40 mM MgCl2, 140 mM NaCl, 30 mM KCl, 0.01% Brij-35, 1 mM DTT, 3.5 μM ATP, 6 μM L-Lysine, 200 nM […] and 0.5 U/mL Pyrophosphatase). Complete inhibition control reactions were performed in the presence of 100 μM of control compoundand the plates were incubated at room temperature for 5 h. Reactions were stopped by the addition of Biomol green (50 μL: Enzo Life Sciences) with the amount of free phosphate detected by measuring absorbance (650 nm) after 20 min further incubation (BMG Pherastar plate reader). Counter screen assays to eliminate direct inhibition of pyrophsphatase were performed using 0.5 U/mL pyrophosphatase and 3 μM pyrophosphate as substrate in the same assay buffer (30 mM Tris-HCl, pH 8.0, 40 mM MgCl2, 140 mM NaCl, 30 mM KCl, 0.01% Brij-35, 1 mM DTT) for 5 hours at room temperature. Biomol green was added and incubated for 20 min before detection as above. Samples were run in duplicate and data was processed and analysed using ActivityBase (IDBS).

Cryptosporidium parvum = test: In vitro inhibition of Cryptosporidium (method of Bessoff et al.); format: cell-based; details: read-out: C. parvum PEC50 (converted)
Description: Assay Method for Measurement of In Vitro Inhibition of Cryptosporidium
These experiments were run in accordance with the method of Besssoff et. al. Antimicrob. Agents Chemother. 2013, 57:1804-1814. Results from these experiments are provided in the Experimental Results hereinafter.

[2] = tested on: Hep G2 (Human hepatocyte carcinoma); test: In vitro inhibition of HepG2 cells (cytotoxicity); format: cell-based; details: read-out: Hs HepG2 PEC50 (converted)
Description: Assay Method for Measurement of In Vitro Inhibition of HepG2 Cells (Cytotoxicity)
These experiments were run in accordance with the method of Mersch-Sundermann V et. al. Toxicology 2004, 198:329-340

[3] = molecular target: Cryptosporidium parvum lysyl t-RNA synthetase (Cp KRS) (Cryptosporidium parvum, UniProt Q5CR27); test: In vitro inhibition of Cryptosporidium lysyl tRNA synthetase (KRS), Biomol green phosphate detection; format: biochemical; details: 300 nM CpKRS, 500 μM ATP, 1.2 mM L-Lysine, 8 h room temperature; read-out: C. parvum KRS pIC50 (converted)
Description: The protein expression and purification method for recombinant CpKRS was described in Baragana et aL, PNAS, 2019, 116 (4), 7015-7020 and will be summarised below.
The C. parvum KRS had 45 residues removed at the N-terminus. All amplicons were cloned into the pAVA0421 expression vector using the ligation independent cloning (LIC) method. Recombinant plasmids were transformed into Rosetta BL21(DE3) competent cells and plated on LB agar plates with ampicillin, carbenicillin, and chloramphenicol selection. Clones were expressed using previously reported autoinduction methods and scaled to 2-litre cultures in a shake flasks. Cell pellets were harvested and lysed with 100 mM HEPES/150 mM NaCl/5% Glycerol/20 mM imidazole/0.5 mM TCEP pH 7.5/DNase/Complete inhibitor tablets) using a Cell Disrupter (Constant Systems) at 30 KPSI and centrifuged at 40,000 g for 20 min remove cell debris. The supernatant was loaded onto a 5 ml HiTrap Ni HP column that had been equilibrated with Buffer A (100 mM HEPES/150 mM NaCl/5% Glycerol/20 mM imidazole/0.5 mM TCEP pH 7.5) at 5 ml/min using an AKTA Pure system. Once loaded the column was washed with 10 column volumes of buffer A. A 5% step of Buffer B (100 mM HEPES/150 mM NaCl/5% Glycerol/500 mM imidazole/0.5 mM TCEP pH 7.5) was then used to wash off His-rich contaminating proteins. A linear gradient of 5-50% B was used to elute the protein. Approximately 287 mg of protein was present in the fractions containing the CpKRS protein. The sample was then concentrated to approximately 30 ml, passed through a 0.2 μm filter, before loading onto a XK26/60 Superdex 200 column using an AKTA Pure system at 4° C. at 2 ml/min 10 ml at a time. The eluted protein was pooled then frozen at −80° C. The concentration of the protein was 1.3 mg/ml. Sometimes the protein was cleaved with PreScission protease overnight, a second Ni column performed in flow through mode to removed uncleaved protein. GST beads were then added to remove the PreScission Protease. The protein was then gel filtered as descripted above.
Assay Method for Measurement of In Vitro Inhibition of Cryptosporidium lysyl tRNA Synthetase (KRS)
Potency of compounds was determined in 10 points dose-response inhibition curves. Compounds were transferred into 384-well clear bottom plates (Greiner Bio-One, 781101) using an Echo 550 acoustic dispenser (Labcyte). Using an automatic liquid dispenser, 50 μL reaction mixes were prepared by adding 25 μL of substrate mix into all wells followed by the addition of 25 μL enzyme mix into compounds and no inhibition control wells (final reaction: 100 mM HEPES, pH 7.4, 20 mM MgCl2, 1 mM DTT, 500 μM ATP, 1.2 mM L-Lysine, 300 nM CpKRS and 0.5 U/mL Pyrophosphatase). Complete inhibition control reactions were performed in the absence of enzyme and the plates were incubated at room temperature for 8 h. Reactions were stopped by the addition of Biomol green (50 μL: Enzo Life Sciences) with the amount of free phosphate detected by measuring absorbance (650 nm) after 20 min further incubation (BMG Pherastar plate reader). Counter screen assays to eliminate direct inhibition of pyrophosphatase were performed using 0.5 U/mL pyrophosphatase and 3 μM pyrophosphate as substrate in the same assay buffer (100 mM HEPES, pH 7.4, 20 mM MgCl2, 1 mM DTT) for 8 hours at room temperature. Biomol green was added and incubated for 20 min before detection as above. Samples were run in duplicate and data was processed and analysed using ActivityBase (IDBS).

Cryptosporidium = details: Cryptosporidium-HIV co-infected patients not co-treated with HIV antiretroviral therapy; cited from earlier work

T1 sequence (Q15046 whole entry): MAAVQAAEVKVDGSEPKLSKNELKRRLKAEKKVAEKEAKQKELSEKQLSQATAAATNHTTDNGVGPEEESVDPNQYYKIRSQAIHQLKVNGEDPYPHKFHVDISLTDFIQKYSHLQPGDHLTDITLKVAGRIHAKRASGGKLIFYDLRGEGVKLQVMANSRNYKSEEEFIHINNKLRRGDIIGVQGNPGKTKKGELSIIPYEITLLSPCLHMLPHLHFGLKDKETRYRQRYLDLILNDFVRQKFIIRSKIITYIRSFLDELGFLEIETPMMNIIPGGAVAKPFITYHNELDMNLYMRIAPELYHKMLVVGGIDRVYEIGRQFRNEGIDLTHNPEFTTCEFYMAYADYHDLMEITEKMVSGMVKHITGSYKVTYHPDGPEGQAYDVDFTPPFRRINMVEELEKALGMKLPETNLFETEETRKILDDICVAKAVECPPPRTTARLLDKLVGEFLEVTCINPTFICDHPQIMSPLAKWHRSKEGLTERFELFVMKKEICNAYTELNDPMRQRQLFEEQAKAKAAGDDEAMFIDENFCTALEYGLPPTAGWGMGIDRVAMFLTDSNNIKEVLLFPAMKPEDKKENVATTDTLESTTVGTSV
Sequence of Cryptosporidium parvum lysyl t-RNA synthetase (Cp KRS) (Q5CR27 entry or part of it): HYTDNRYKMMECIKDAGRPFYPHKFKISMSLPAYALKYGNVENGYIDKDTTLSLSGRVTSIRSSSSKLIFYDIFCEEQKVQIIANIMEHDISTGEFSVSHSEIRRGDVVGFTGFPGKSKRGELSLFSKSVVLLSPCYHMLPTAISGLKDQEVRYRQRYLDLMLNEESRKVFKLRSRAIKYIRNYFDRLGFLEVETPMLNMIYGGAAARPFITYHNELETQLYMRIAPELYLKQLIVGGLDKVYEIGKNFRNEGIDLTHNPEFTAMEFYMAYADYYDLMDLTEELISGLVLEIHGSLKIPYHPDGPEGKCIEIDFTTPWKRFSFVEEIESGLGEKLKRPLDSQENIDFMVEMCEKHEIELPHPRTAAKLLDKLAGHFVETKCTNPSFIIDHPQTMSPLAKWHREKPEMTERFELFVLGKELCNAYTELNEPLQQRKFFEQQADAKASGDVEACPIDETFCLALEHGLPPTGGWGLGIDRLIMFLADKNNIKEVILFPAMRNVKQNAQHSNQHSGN
Sequence of PfLysRS (Q8IDJ8 1-583): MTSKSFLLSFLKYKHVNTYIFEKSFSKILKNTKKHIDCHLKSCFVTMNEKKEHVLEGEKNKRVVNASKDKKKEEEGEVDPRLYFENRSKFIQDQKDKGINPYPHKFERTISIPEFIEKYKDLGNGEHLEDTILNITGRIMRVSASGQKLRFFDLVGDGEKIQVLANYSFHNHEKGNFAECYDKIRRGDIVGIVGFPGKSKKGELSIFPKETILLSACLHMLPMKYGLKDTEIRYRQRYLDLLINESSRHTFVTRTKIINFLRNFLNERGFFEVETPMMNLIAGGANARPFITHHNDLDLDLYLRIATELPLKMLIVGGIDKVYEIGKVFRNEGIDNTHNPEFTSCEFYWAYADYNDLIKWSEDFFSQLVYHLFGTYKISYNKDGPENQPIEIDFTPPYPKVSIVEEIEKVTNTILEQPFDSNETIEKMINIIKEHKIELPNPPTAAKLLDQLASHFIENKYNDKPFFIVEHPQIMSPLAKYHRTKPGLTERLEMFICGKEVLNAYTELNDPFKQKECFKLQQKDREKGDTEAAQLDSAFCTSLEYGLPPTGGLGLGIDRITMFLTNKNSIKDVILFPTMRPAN

Row | SMILES | selectivity for PfLysRS vs HsLysRS (PfLysRS) | IC50 [1] [µM] | EC50 (Cryptosporidium parvum) [µM] | EC50 [2] [µM] | IC50 [3] [µM] | efficacy in clinical trials (Cryptosporidium)
1 | C[C@H]1CCC[C@H](C[C@H]2Cc3cc(O)cc(O)c3C(=O)O2)O1 [Cladosporin, cladosporin] | more than 100 fold |  |  |  |  | 
2 | Nc1nc2c(c(C(F)(F)F)n1)C(=O)N(C[C@@H]1CCC[C@@H](C(F)(F)F)C1)C2 [Compound 5, 2-amino-4-(trifluoromethyl)-6-(((1R,3R)-3-(trifluoromethyl)cyclohexyl)methyl)-6,7-dihydro-5H-pyrrolo[3,4-d]pyrimidin-5-one] |  | 20 | 0.0501 | 15.8 | 1.58 | 
3 | Nc1nc2c(c(C(F)(F)F)n1)C(=O)N(C[C@H]1CCC[C@@H](C(F)(F)F)C1)C2 [Compound 6, 2-amino-4-(trifluoromethyl)-6-(((1S,3R)-3-(trifluoromethyl)cyclohexyl)methyl)-6,7-dihydro-5H-pyrrolo[3,4-d]pyrimidin-5-one] |  | > 100 |  | > 100 | > 50.1 | 
4 | Nc1nc2c(c(C(F)(F)F)n1)C(=O)N(C[C@H]1CCC[C@H](C(F)(F)F)C1)C2 [Compound 7, 2-amino-4-(trifluoromethyl)-6-(((1S,3S)-3-(trifluoromethyl)cyclohexyl)methyl)-6,7-dihydro-5H-pyrrolo[3,4-d]pyrimidin-5-one] |  | 63.1 |  | 79.4 | 15.8 | 
5 | CC(=O)Oc1ccccc1C(=O)Nc1ncc([N+](=O)[O-])s1 [Nitazoxanide] |  |  |  |  |  | ineffective
